Data on two molecules can be found in publication PMC3933009, “Identification and characterization of a galacturonic acid transporter from Neurospora crassa and its application for Saccharomyces cerevisiae fermentation processes” (Biotechnology for Biofuels, 2014).

Holding throughout (type): cell-based
Assay [1] concerns the target T1, D-galacturonate reductase (GAAA) (Aspergillus niger, UniProt A8DRH9).
T1 construct: codon-optimized gene, Cen6/leu2 vector with TDH3 promoter, expressed in S. cerevisiae with gat-1-GFP integrated
T1 sequence (A8DRH9 1-412): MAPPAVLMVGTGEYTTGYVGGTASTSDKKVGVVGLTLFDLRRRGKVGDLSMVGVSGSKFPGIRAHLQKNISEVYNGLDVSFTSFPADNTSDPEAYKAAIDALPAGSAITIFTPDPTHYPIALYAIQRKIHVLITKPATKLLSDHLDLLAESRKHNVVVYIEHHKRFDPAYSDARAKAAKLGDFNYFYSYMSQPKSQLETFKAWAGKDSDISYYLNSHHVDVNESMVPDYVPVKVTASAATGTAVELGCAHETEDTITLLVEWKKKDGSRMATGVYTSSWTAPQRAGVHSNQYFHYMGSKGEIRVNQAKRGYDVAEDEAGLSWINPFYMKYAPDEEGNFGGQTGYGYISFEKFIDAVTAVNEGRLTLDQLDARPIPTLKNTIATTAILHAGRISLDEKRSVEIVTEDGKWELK
The assay is described as follows: bioconversion in engineered yeast, LC-MS/MS of L-galactonic acid. The following applies: 90 μM D-GalA, pH 5.8, 30°C; endogenous NADPH; GAT-1 co-expressed; native yeast reductase background.

Assay [2] has as its target T2, uronate dehydrogenase (UDH) (Agrobacterium fabrum, UniProt Q7CRQ0).
T2 construct: open reading frame, Cen6/leu2 vector with TDH3 promoter, expressed in S. cerevisiae with gat-1-GFP integrated
T2 sequence (Q7CRQ0 1-265): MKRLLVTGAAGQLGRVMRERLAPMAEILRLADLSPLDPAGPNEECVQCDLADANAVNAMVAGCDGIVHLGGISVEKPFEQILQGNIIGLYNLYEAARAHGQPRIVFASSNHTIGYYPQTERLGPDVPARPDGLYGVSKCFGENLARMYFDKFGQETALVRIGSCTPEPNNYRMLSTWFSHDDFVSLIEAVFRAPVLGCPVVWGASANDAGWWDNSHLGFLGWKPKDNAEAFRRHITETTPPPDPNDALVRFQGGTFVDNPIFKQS
The assay is described as follows: bioconversion in engineered yeast, LC-MS/MS of meso-galactaric acid. To be noted: 90 μM D-GalA, pH 5.8, 30°C; endogenous NAD+; GAT-1 co-expressed.

Assay [3] deals with T3, quinate permease (NCU06026; quinate-Y) (Neurospora crassa, UniProt P11636).
T3 construct: gene qa-y; native protein in mycelia; wild type compared with deletion strain
The assay is described as follows: uptake by induced mycelia, WT versus deletion strain, MS detection. To be noted: 90 μM quinic acid plus D-GalA, Vogel's salts, 25°C.

Structures are written as SMILES.

T3 sequence (P11636 whole entry): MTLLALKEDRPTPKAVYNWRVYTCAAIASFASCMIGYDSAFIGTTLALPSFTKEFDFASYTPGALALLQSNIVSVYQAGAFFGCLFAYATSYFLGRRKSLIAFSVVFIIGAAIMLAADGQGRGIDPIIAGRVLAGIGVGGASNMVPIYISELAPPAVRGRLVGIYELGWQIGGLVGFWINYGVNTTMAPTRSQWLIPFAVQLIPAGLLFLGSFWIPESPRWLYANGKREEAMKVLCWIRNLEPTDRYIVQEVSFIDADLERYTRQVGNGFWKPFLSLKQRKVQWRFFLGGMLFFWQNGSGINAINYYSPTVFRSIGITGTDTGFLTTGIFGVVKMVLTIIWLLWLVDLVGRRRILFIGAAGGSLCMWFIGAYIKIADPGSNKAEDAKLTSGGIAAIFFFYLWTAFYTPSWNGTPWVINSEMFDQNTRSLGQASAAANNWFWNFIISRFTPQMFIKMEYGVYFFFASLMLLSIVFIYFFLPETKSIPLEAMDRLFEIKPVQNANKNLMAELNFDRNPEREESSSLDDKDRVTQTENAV

For the molecule `O=C(O)[C@H]1OC(O)[C@H](O)[C@@H](O)[C@H]1O` (stereo partly drawn) [D-GalA], the “bioconversion in engineered yeast, LC-MS/MS of L-galactonic acid” value in assay [1] was “expression of the reductase resulted in a higher product yield (GAAA/GAT-1)”. In assay [2], the “bioconversion in engineered yeast, LC-MS/MS of meso-galactaric acid” value was “GalAA production was enzyme (UDH)dependent”.

For `O=C(O)[C@]1(O)C[C@@H](O)[C@@H](O)[C@H](O)C1` [quinic acid], in assay [3], the “uptake by induced mycelia, WT versus deletion strain, MS detection” value is recorded as “almost completely unable to take up qa, indicating that it is the only physiologically relevant transporter”.
